Entries after “also recorded” stand apart in the source; their conditions may differ.
Columns and labels:
[1] = test system: Mouse dorsal root ganglion (DRG) cells; test: Microfluidic based axon degeneration assay (axotomy, degeneration index); format: cell-based; conditions: for efficacy against Wallerian degeneration compared with FK866: tested at different concentrations; for Optimized Concentration used (from dose response curves): tested 2 hours following axotomy
Experimental: A poly-dimethylsiloxane (PDMS)-based microfluidic device described by Hosmane and colleagues was used for these experiments (see, FIG. 16) (see, Hosmane, et al., Lab Chip 2010, 10, 741-747). This device provisions a perikaryal compartment where nerve cells are first placed and a juxtaposed array of 200 microchannels towards which axons grow and through which they traverse to reach a third axonal compartment. Mouse dorsal root ganglion (DRG) cells were prepared from E12-13 embryos and plated to the perikaryal compartment. After 6-7 days of culture at 37° C. and 5% CO2, axons were cut using a razor blade with vehicle or reagents. Images of the axonal compartment were taken at various time intervals at 20× magnification. Images were then analyzed for degeneration index (DI) which indicates percentage of fragmented axons over total axonal area, and drug-treated axons were compared to vehicle treated or uninjured axons. Live time-lapse images were taken as needed.

[2] = test system: mice injured with impact-acceleration; test: Pellet-reaching task after impact-acceleration traumatic brain injury; format: in vivo, mouse; conditions: drug administered continuously for 14 days post injury (osmotic pump); vs vehicle-treated mice
Experimental: Experiments were conducted to characterize the effects of SARM1 deletion or pharmacological SARM1 blockade on corticospinal-dependent motor deficits after traumatic brain injury (impact-acceleration). This was tested on the pellet-reaching task, i.e. the golden-standard to assess skilled function of the forelimbs in rodents relevant to a similar task used to assess fine motor function in humans. Specifically, experiments trained mice for 2 weeks before TBI in order to reach peak performance in the task. At that point the trained mice were injured with impact-acceleration. Experiments next measured their performance every day for two weeks post injury and comparisons were made between groups of mice administered FK866 and vehicle treated mice (control group).
Mice were placed under food restriction or 2 days to lose approximately 10% of their body weight. Following this, the shaping phase of the experiment was initiated: two mice were placed in the training chamber comprised of a clear Plexiglas chamber with ample food for 20 minutes for the first day, whereas one mouse was placed in the same chamber on day 2. The training chamber has a single slit through which the mouse can retrieve a pellet of food placed on the outside right in front of the slit. […] Retrieval attempts were recorded and characterized as successful only if a mouse retrieved the pellet and put it in its mouth. […]

[3] = test system: IA-injured Thy1-eYFP-H mice; test: CLARITY-based counts of axonal lesions in the CST after impact acceleration (IA) injury; format: in vivo, mouse; conditions: FK866 10 mg/kg i.p. immediately after injury then every 6 h, vs vehicle
From the text: IA injury was produced under gas anesthesia with 2% isoflurane. Under aseptic conditions and with the subject in a small-animal stereotactic frame, a 5-mm-diameter steel disc was glued on the exposed cranium between bregma and lambda to prevent skull fracture. The mouse was then placed prone on a foam bed under a hollow Plexiglas tube and secured with tape as described previously (see, Xu L, (2016) Exp Neurol 275:436-449). Injury was produced by dropping a brass weight from a height of 1 m through the Plexiglas tube onto the disk. In all cases except the impact dose-response study outlined below, that weight was 60 g. The foam bed was pulled immediately at the rebound of the weight off the metal disc, such as to prevent a second impact. The metal disc was then removed, scalp incision was closed with surgical staples, and the animal returned to cage for full recovery. Subjects with skull fractures confirmed with a surgical microscope were excluded from the study. […]
For 3D visualization and quantitative analysis of axonal injury of cleared brainstems, we used the software suite Imaris (Bitplane). […] For the detection and quantification of axonal swellings based on YFP and APP, the spot detection function for the whole CST volume from the pons to the pyramidal decussation or cervical spinal cord was used. […]

SMILES	efficacy against Wallerian degeneration compared with FK866 ([1]; axotomized DRG axons)	Optimized Concentration used (from dose response curves) [1] [nM]	also measured
N#CN=C(NCCCCCCOc1ccc(Cl)cc1)Nc1ccncc1 [CHS-828]	comparably strong efficacy	250	–
O=C(/C=C/c1cccnc1)NCCCCC1CCN(C(=O)c2ccccc2)CC1 [FK866]	–	100	skilled motor function (pellet-reaching performance) [2]: significant preservation of skilled motor function; also recorded: maintain their pellet-reaching skill; number (density) of axonal lesions per anatomical segment (CST×RST, pyramidal decussation, cervical cord) ([3]; 24 h after injury): significantly lower number of axonal lesions; total number of axonal lesions in the CST from the pons to cervical spinal cord ([3]; counted 24 h after injury, 10 mg/kg): significantly lower number of axonal lesions; also recorded: smaller number of axonal lesions; optimal therapeutic window of treatment onset ([1]; FK866 given at 0, 2, 4, 6 hours following injury): within two to six hours of injury; delay of further fragmentation ([1]; axotomized DRG axons, treatment after the onset of visible fragmentation): still effective in delaying further fragmentation; protection against Wallerian degeneration (degeneration index) ([1]; axotomized DRG axons, treatment at 2 hours post-injury): Maximum protection against WD
O=C(CCCCCCCn1cc(-c2cccnc2)nn1)Nc1ccccc1-c1ccccc1 [GPP78]	comparably strong efficacy	1000	–
NC(=O)c1ccc[n+]([C@@H]2O[C@H](CO)[C@@H](O)[C@H]2O)c1 [NAR, nicotinamide riboside]	–	–	effect of added NAR on the protective effect of FK866 ([1]; FK866 and/or NAR at the time of injury): further augmented the protective effect of FK866
NC(=O)c1ccc[n+]([C@@H]2O[C@H](COP(=O)([O-])O)[C@@H](O)[C@H]2O)c1 [NMN, nicotinamide mononucleotide]	–	–	effect of added NMN on the protection by NAMPT inhibition (FK866) ([1]; FK866 at time of injury, NMN added 0, 2, 4 hours post axotomy): reversed
CC(C)(C)c1ccc(S(=O)(=O)NCc2ccc(C(=O)Nc3cccnc3)cc2)cc1 [STF31]	comparably strong efficacy	2000	–
Cc1ccc(S(=O)(=O)Cc2nc(-c3ccc(C(=O)NCc4cccnc4)cc3)oc2C)cc1 [STF118804]	comparably strong efficacy	250	–

Reference: patent US20220160688A1, “INHIBITION OF NAMPT AND/OR SARM1 FOR THE TREATMENT OF AXONAL DEGRADATION” (THE JOHNS HOPKINS UNIVERSITY, priority 2019, published 2022)
